In patent publication US9221836B2, “Heterocyclic compound and use thereof” (TAKEDA PHARMACEUTICAL COMPANY LIMITED, priority 2008, dated 2015):
Changes are numbered by the printed parent chain. Counter-ions that a name gives are not always drawn.

What follows are compounds tested against T1, Human renin (Homo sapiens, UniProt P00797) (assay: Human renin inhibition, angiotensin I quantified by EIA). Details: read-out: Human renin inhibitory activity: inhibitory activity (%) at 0.1 μM.
T1 sequence (P00797 67-406): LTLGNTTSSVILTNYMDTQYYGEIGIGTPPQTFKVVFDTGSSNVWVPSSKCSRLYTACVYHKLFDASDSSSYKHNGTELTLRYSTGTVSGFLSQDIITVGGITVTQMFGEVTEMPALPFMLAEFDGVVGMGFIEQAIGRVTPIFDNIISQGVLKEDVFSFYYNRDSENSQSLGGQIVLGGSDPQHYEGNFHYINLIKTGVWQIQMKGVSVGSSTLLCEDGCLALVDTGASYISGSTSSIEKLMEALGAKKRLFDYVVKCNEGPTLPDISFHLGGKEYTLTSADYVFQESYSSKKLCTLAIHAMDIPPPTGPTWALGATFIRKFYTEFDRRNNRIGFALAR
Method: (6) Measurement of Renin Inhibition Value
As a substrate for renin activity measurement, the angiotensinogen mentioned in (5) above was used. 1 μl each of the test compound (containing 100% DMSO) was added to each well of a 384-well plate (ABgene). Renin was diluted with a buffer solution for reaction (20 mM sodium phosphate (pH 7.4)) to a concentration of 57 pM, and 14 μl each of the dilution was added to each well. The dilution was left to stand at 37° C. for 10 min, and then 5 μl of each of a 6 μM solution of substrate angiotensinogen was added to each well to initiate the reaction. […] The amount of angiotensin I produced by an enzyme reaction was quantified by Enzyme Immuno Assay (EIA) described below.
Anti-angiotensin I antibody (Peninsula Laboratories Inc.) diluted 5,000-fold with PBS was added to each well of a 384 well black plate (Nalge Nunc International Co., Ltd.) by 25 μl, and left standing overnight at 4° C. to immobilize the antibody in the plate. The antibody solution was removed, PBS solution (100 μl) containing 1% BSA was added to each well, and the mixture was left standing at room temperature for 2 hr for blocking. The blocking solution was removed, and each well was washed 5 times with 100 μl of 0.05% Tween20-PBS. […] Then, a biotinated angiotensin I solution (AnaSpec, 15 μl) prepared to 1.6 nM with a buffer [20 mM tris-hydrochloric acid (pH 7.4), 150 mM sodium chloride, 0.01% BSA, 0.05% Tween20] was added to each well, mixed with a plate mixer and left standing at room temperature for 1 hr. The solutions were removed from each well, and each well was washed 5 times with 100 μl of 0.05% Tween20-PBS. Horseradish peroxydase Streptavidin (PIERCE Biotecnology inc., 25 μl) diluted to 100 ng/ml with a buffer [20 mM tris-hydrochloric acid (pH 7.4), 150 mM sodium chloride, 0.1% BSA, 0.05% Tween 20] was added to each well and the mixture was left standing at room temperature for 30 min. The solutions were removed from each well, and each well was washed 5 times with 100 μl of 0.05% Tween20-PBS. SuperSignal ELISA femto Maximum Sensitivity Substrate (PIERCE Biotecnology Inc.) was added by 25 μl and luminescence intensity was measured by EnVision (Perkin Elmer Inc.). An analytical curve was drawn from the luminescence intensity of wells containing an angiotensin I standard solution, and the amount of angiotensin I produced by an enzyme reaction was calculated and used as an index of renin activity.
With CC[C@@H](O)[C@H]1CNC[C@@H](N(CC(C)C)C(=O)c2nc3ccccc3n2CCCCOC)C1.Cl.Cl [Example 75-2, N-{(3S,5R)-5-[(1R)-1-hydroxypropyl]piperidin-3-yl}-1-(4-methoxybutyl)-N-(2-methylpropyl)-1H-benzimidazole-2-carboxamide dihydrochloride] the inhibition at 0.1 µM was 90%.
Compound CC[C@H](O)[C@H]1CNC[C@@H](N(CC(C)C)C(=O)c2nc3ccccc3n2CCCCOC)C1.Cl.Cl [Example 75-1, N-{(3S,5R)-5-[(1S)-1-hydroxypropyl]piperidin-3-yl}-1-(4-methoxybutyl)-N-(2-methylpropyl)-1H-benzimidazole-2-carboxamide dihydrochloride] has an inhibition at 0.1 µM of 95%.
COCCCCn1c(C(=O)N(CC(C)C)[C@@H]2CNC[C@H]([C@H](C)O)C2)nc2ccccc21.Cl.Cl [Example 74-1, N-{(3S,5R)-5-[(1S)-1-hydroxyethyl]piperidin-3-yl}-1-(4-methoxybutyl)-N-(2-methylpropyl)-1H-benzimidazole-2-carboxamide dihydrochloride] showed an inhibition at 0.1 µM of 94%.
COCCCCn1c(C(=O)N(CC(C)C)[C@@H]2CNC[C@H]([C@@H](C)O)C2)nc2ccccc21.Cl.Cl [Example 74-2, N-{(3S,5R)-5-[(1R)-1-hydroxyethyl]piperidin-3-yl}-1-(4-methoxybutyl)-N-(2-methylpropyl)-1H-benzimidazole-2-carboxamide dihydrochloride] gave an inhibition at 0.1 µM of 96%.

What follows are compounds tested against T2, plasma renin activity (PRA) (Macaca fascicularis, UniProt Q6DLS0) (assay: not given). Details: male Macaca fascicularis; 1 mg/kg orally in 0.5% methylcellulose; plasma 4 hr after administration; amended with vehicle group.
T2 sequence (Q6DLS0 67-406): T1 sequence (P00797 67-406) with T2A, I148L, S169A
COCCCCn1c(C(=O)N(CC(C)C)[C@@H]2CNC[C@H](C(=O)N3CCCC3)C2)nc2cc(F)ccc21 [Example 18, 5-fluoro-1-(4-methoxybutyl)-N-(2-methylpropyl)-N-[(3S,5R)-5-(pyrrolidin-1-ylcarbonyl)piperidin-3-yl]-1H-benzimidazole-2-carboxamide dihydrochloride] was tested, and the “Macaca fascicularis plasma renin activity: PPA inhibitory activity (%, n = 3-7)” value was 89%.
In the case of COCCCCn1c(C(=O)N(CC(C)C)[C@@H]2CNC[C@H]([C@H](O)COC)C2)nc2ccccc21.Cl.Cl [Example 73-2, N-{(3S,5R)-5-[(1S)-1-hydroxy-2-methoxyethyl]piperidin-3-yl}-1-(4-methoxybutyl)-N-(2-methylpropyl)-1H-benzimidazole-2-carboxamide dihydrochloride], the “Macaca fascicularis plasma renin activity: PPA inhibitory activity (%, n = 3-7)” value is reported as 90%.
In the case of COCCCCc1c(C(=O)N(CC(C)C)[C@@H]2CNC[C@H](C(=O)N3CCOCC3)C2)nnn1-c1ccccc1Cl.Cl [Example 235, 1-(2-chlorophenyl)-5-(4-methoxybutyl)-N-(2-methylpropyl)-N-[(3S,5R)-5-(morpholin-4-ylcarbonyl)piperidin-3-yl]-1H-1,2,3-triazole-4-carboxamide hydrochloride], the “Macaca fascicularis plasma renin activity: PPA inhibitory activity (%, n = 3-7)” value is reported as 62%.
With COCCCCc1c(C(=O)N(CC(C)C)[C@@H]2CNC[C@H](C(=O)N3CCOCC3)C2)nnn1-c1ccccc1F.Cl [Example 233, 1-(2-fluorophenyl)-5-(4-methoxybutyl)-N-(2-methylpropyl)-N-[(3S,5R)-5-(morpholin-4-ylcarbonyl)piperidin-3-yl]-1H-1,2,3-triazole-4-carboxamide hydrochloride] the “Macaca fascicularis plasma renin activity: PPA inhibitory activity (%, n = 3-7)” value was 67%.
For CC[C@@H](O)[C@H]1CNC[C@@H](N(CC(C)C)C(=O)c2nc3ccccc3n2CCCCOC)C1.Cl.Cl [Example 75-2, N-{(3S,5R)-5-[(1R)-1-hydroxypropyl]piperidin-3-yl}-1-(4-methoxybutyl)-N-(2-methylpropyl)-1H-benzimidazole-2-carboxamide dihydrochloride], the “Macaca fascicularis plasma renin activity: PPA inhibitory activity (%, n = 3-7)” value was 71%.
With COCCCCn1c(C(=O)N(CC2CC2)[C@@H]2CNC[C@H](C(=O)N3CCOCC3)C2)nc2ccccc21 [Example 253, N-(cyclopropylmethyl)-1-(4-methoxybutyl)-N-[(3S,5R)-5-(morpholin-4-ylcarbonyl)piperidin-3-yl]-1H-benzimidazole-2-carboxamide dihydrochloride] the “Macaca fascicularis plasma renin activity: PPA inhibitory activity (%, n = 3-7)” value was 77%.
CCC(O)[C@H]1CNC[C@@H](N(CC(C)C)C(=O)c2nc3ccccc3n2CCCCOC)C1 (stereo partly drawn) [Example 76, N-[(3S,5R)-5-(1-hydroxypropyl)piperidin-3-yl]-1-(4-methoxybutyl)-N-(2-methylpropyl)-1H-benzimidazole-2-carboxamide dihydrochloride] was tested, and the “Macaca fascicularis plasma renin activity: PPA inhibitory activity (%, n = 3-7)” value was 79%.
In the case of COCCCCn1c(C(=O)N(CC(C)C)[C@@H]2CNC[C@H](C(=O)N3CCCC3)C2)nc2ccc(OC)cc21 [Example 62, 6-methoxy-1-(4-methoxybutyl)-N-(2-methylpropyl)-N-{(3S,5R)-5-(pyrrolidin-1-ylcarbonyl)piperidin-3-yl}-1H-benzimidazole-2-carboxamide dihydrochloride], the “Macaca fascicularis plasma renin activity: PPA inhibitory activity (%, n = 3-7)” value is reported as 75%.
In the case of CC[C@H](O)[C@H]1CNC[C@@H](N(CC(C)C)C(=O)c2nc3ccccc3n2CCCCOC)C1.Cl.Cl [Example 75-1, N-{(3S,5R)-5-[(1S)-1-hydroxypropyl]piperidin-3-yl}-1-(4-methoxybutyl)-N-(2-methylpropyl)-1H-benzimidazole-2-carboxamide dihydrochloride], the “Macaca fascicularis plasma renin activity: PPA inhibitory activity (%, n = 3-7)” value is reported as 86%.
For COCCCCn1c(C(=O)N(CC(C)C)[C@@H]2CNC[C@H](C(=O)N3CCOCC3)C2)nc2ccc(OC)cc21 [Example 60, 6-methoxy-1-(4-methoxybutyl)-N-(2-methylpropyl)-N-{(3S,5R)-5-(morpholin-4-ylcarbonyl)piperidin-3-yl}-1H-benzimidazole-2-carboxamide dihydrochloride], the “Macaca fascicularis plasma renin activity: PPA inhibitory activity (%, n = 3-7)” value was 85%.
COCCCCn1c(C(=O)N(CC(C)C)[C@@H]2CNC[C@H](CO)C2)nc2ccccc21 [Example 40, N-[(3S,5R)-5-(hydroxymethyl)piperidin-3-yl]-1-(4-methoxybutyl)-N-(2-methylpropyl)-1H-benzimidazole-2-carboxamide dihydrochloride] was tested, and the “Macaca fascicularis plasma renin activity: PPA inhibitory activity (%, n = 3-7)” value was 75%.
COCCCCn1c(C(=O)N(CC(C)C)[C@@H]2CNC[C@H]([C@H](C)O)C2)nc2ccccc21.Cl.Cl [Example 74-1, N-{(3S,5R)-5-[(1S)-1-hydroxyethyl]piperidin-3-yl}-1-(4-methoxybutyl)-N-(2-methylpropyl)-1H-benzimidazole-2-carboxamide dihydrochloride] was tested, and the “Macaca fascicularis plasma renin activity: PPA inhibitory activity (%, n = 3-7)” value was 90%.
With COCCCCn1c(C(=O)N(CC(C)C)[C@@H]2CNC[C@H](C(=O)N3CCOCC3)C2)nc2ccc(F)cc21 [Example 11, 6-fluoro-1-(4-methoxybutyl)-N-(2-methylpropyl)-N-[(3S,5R)-5-(morpholin-4-ylcarbonyl)piperidin-3-yl]-1H-benzimidazole-2-carboxamide dihydrochloride] the “Macaca fascicularis plasma renin activity: PPA inhibitory activity (%, n = 3-7)” value was 89%.
With COCCCCn1c(C(=O)N(CC(C)C)[C@@H]2CNC[C@H](C(C)O)C2)nc2ccccc21 (stereo partly drawn) [Example 42, N-[(3S,5R)-5-(1-hydroxyethyl)piperidin-3-yl]-1-(4-methoxybutyl)-N-(2-methylpropyl)-1H-benzimidazole-2-carboxamide dihydrochloride] the “Macaca fascicularis plasma renin activity: PPA inhibitory activity (%, n = 3-7)” value was 70%.
COCCCCn1c(C(=O)N(CC(C)C)[C@@H]2CNC[C@H](C(N)=O)C2)nc2ccccc21 [Example 25, N-[(3S,5R)-5-carbamoylpiperidin-3-yl]-1-(4-methoxybutyl)-N-(2-methylpropyl)-1H-benzimidazole-2-carboxamide dihydrochloride] was tested, and the “Macaca fascicularis plasma renin activity: PPA inhibitory activity (%, n = 3-7)” value was 79%.
With COCCCCn1c(C(=O)N(CC(C)C)[C@@H]2CNC[C@H]([C@@H](O)COC)C2)nc2ccccc21.Cl.Cl [Example 73-1, N-{(3S,5R)-5-[(1R)-1-hydroxy-2-methoxyethyl]piperidin-3-yl}-1-(4-methoxybutyl)-N-(2-methylpropyl)-1H-benzimidazole-2-carboxamide dihydrochloride] the “Macaca fascicularis plasma renin activity: PPA inhibitory activity (%, n = 3-7)” value was 77%.
COCCCCn1c(C(=O)N(CC(C)C)[C@@H]2CNC[C@H]([C@@H](C)O)C2)nc2ccccc21.Cl.Cl [Example 74-2, N-{(3S,5R)-5-[(1R)-1-hydroxyethyl]piperidin-3-yl}-1-(4-methoxybutyl)-N-(2-methylpropyl)-1H-benzimidazole-2-carboxamide dihydrochloride] was tested, and the “Macaca fascicularis plasma renin activity: PPA inhibitory activity (%, n = 3-7)” value was 54%.
For COCCCCn1c(C(=O)N(CC(C)C)[C@@H]2CNC[C@H](C(=O)OCc3oc(=O)oc3C)C2)nc2ccccc21 [Example 7, (5-methyl-2-oxo-1,3-dioxol-4-yl)methyl (3R,5S)-5-[{[1-(4-methoxybutyl)-1H-benzimidazol-2-yl]carbonyl}(2-methylpropyl)amino]piperidine-3-carboxylate dihydrochloride], the “Macaca fascicularis plasma renin activity: PPA inhibitory activity (%, n = 3-7)” value was 93%.
For COCCCCn1c(C(=O)N(CC(C)C)[C@@H]2CNC[C@H](C(=O)O)C2)nc2ccccc21 [Example 33, (3R,5S)-5-[{[1-(4-methoxybutyl)-1H-benzimidazol-2-yl]carbonyl}(2-methylpropyl)amino]piperidine-3-carboxylic acid dihydrochloride], the “Macaca fascicularis plasma renin activity: PPA inhibitory activity (%, n = 3-7)” value was 77%.
With COCCCCn1c(C(=O)N(CC(C)C)[C@@H]2CNC[C@H](C(=O)N3CCOCC3)C2)nc2ccccc21 [Example 10, 1-(4-methoxybutyl)-N-(2-methylpropyl)-N-[(3S,5R)-5-(morpholin-4-ylcarbonyl)piperidin-3-yl]-1H-benzimidazole-2-carboxamide dihydrochloride] the “Macaca fascicularis plasma renin activity: PPA inhibitory activity (%, n = 3-7)” value was 72%.
COCCCCn1c(C(=O)N(CC(C)C)[C@@H]2CNC[C@H](C(=O)N3CCCCC3)C2)nc2ccccc21 [Example 21, 1-(4-methoxybutyl)-N-(2-methylpropyl)-N-[(3S,5R)-5-(piperidin-1-ylcarbonyl)piperidin-3-yl]-1H-benzimidazole-2-carboxamide dihydrochloride] was tested, and the “Macaca fascicularis plasma renin activity: PPA inhibitory activity (%, n = 3-7)” value was 85%.
COCCCCn1c(C(=O)N(CC(C)C)[C@@H]2CNC[C@H](C(O)COC)C2)nc2ccccc21 (stereo partly drawn) [Example 48, N-[(3S,5R)-5-(1-hydroxy-2-methoxyethyl)piperidin-3-yl]-1-(4-methoxybutyl)-N-(2-methylpropyl)-1H-benzimidazole-2-carboxamide dihydrochloride] was tested, and the “Macaca fascicularis plasma renin activity: PPA inhibitory activity (%, n = 3-7)” value was 78%.
